Values after ≈ are worked out from the molar mass of the structure shown. Like-named read-outs stand apart in the source and are kept apart here. Marks after values point to notes of the source that are not given here.
Columns and labels:
[1] = biological target: T1, LdMetRS (Leishmania donovani, UniProt A0A3Q8IBX2); settings: read-out: LdMetRS Km app; cited from earlier work
[2] = biological target: T2, TcMetRS (Trypanosoma cruzi, UniProt Q4D6H2); test: TcMetRS BIOMOL Green biochemical assay, 10-point dose response
[3] = biological target: T1, LdMetRS; set-up: method as in PMID 28967262; settings: cited from earlier work
[4] = test system: leishmaniasis animal model; set-up: method as in PMID 28967262; settings: cited from earlier work
[5] = biological target: T2, TcMetRS; test: TcMetRS kinetic parameter determinations (Km app); format: biochemical
Protocol: (§1) The activity of the TcMetRS enzyme was determined by monitoring levels of pyrophosphate released during the first step of the enzymatic reaction. The pyrophosphate formed was converted to two inorganic phosphate molecules using a pyrophosphatase enzyme, and levels of the resulting phosphate molecules were measured using the BIOMOL Green reagent (Enzo Life Sciences).
(§2) TcMetRS assays were carried out using 384-well, clear, flat-bottomed plates (Greiner) at room temperature (∼23 °C) in 50 μL reaction volumes of assay buffer (30 mM Tris, pH 8.0, 140 mM NaCl, 30 mM KCl, 40 mM MgCl2, 0.01% (v/v) Brij-35, 1 mM DTT) plus 1 U/mL pyrophosphatase and varying concentrations of enzyme and substrates. Enzyme linearity was assessed in a 90 min end-point assay with varying TcMetRS concentrations (0–320 nM), 50 μM L-methionine, and 100 μM ATP. Reactions were stopped with the addition of 50 μL of BIOMOL Green reagent, with the signal allowed to develop for 30 min before the absorbance of each well was read at 650 nm (A650) using a PheraStar plate reader (BMG).
(§3) Apparent Michaelis constants (Km^app) for the L-methionine and ATP substrates were determined in end-point assays using the above buffer conditions and 80 nM recombinant TcMetRS. […] To determine the ATP Km^app, various ATP concentrations were tested in the presence of a fixed, saturating concentration of L-methionine (3 mM). […]

[6] = biological target: T1, LdMetRS; test: LdMetRS BIOMOL Green biochemical assay, 10-point dose response
[7] = CHI LogD measurement; format: physicochemical; settings: chromatographic hydrophobicity index
Protocol: CHI LogD measurements were performed as described elsewhere.[29] cLogP measurements were calculated using StarDrop (Optibrium).

[8] = Aqueous solubility, filtration-based method; format: physicochemical; settings: aqueous buffer, kinetic from dmso stock; phosphate-buffered saline pH 7.4, 24 h, 25 °C
Protocol: Solubility was assessed using a filtration-based method. Test compounds were dissolved in DMSO to give 10 mM solutions. Five microliters of the 10 mM solution was added to 195 μL of phosphate-buffered saline at pH 7.4 and mixed for 24 h (rotary mixing, 900 rpm, 25 °C) excluding light. After mixing, the samples were filtered to remove any undissolved material using a Millipore Multiscreen HTS filter. The filtrate was analyzed for dissolved drug compounds using UHPLC.

[9] = biological target: T1, LdMetRS; test: LdMetRS mode of inhibition studies; format: biochemical; settings: for Ki / h (inhibitor Hill slope) / β (fraction of activity remaining) / Vmax / n (substrate Hill slope) / Ks: LdMetRS; for Ki: fit to eq 7, ± SE of fit; for Vmax: global fit parameter; for n (substrate Hill slope) / Ks: global fit; for Ks: substrate dissociation constant
Excerpt: Subsequent full mode of inhibition studies with compounds from the MetRS02 series were more challenging due to the partial inhibition profiles of some compounds resulting in poor global fits to the standard competitive, uncompetitive, and noncompetitive inhibition models (eqs 3, 4, and 5, respectively). In addition, during the enzymatic characterization of methionine binding to LdMetRS, a Hill slope of <1 was obtained (and was hypothesized to be due to conformational selection).[6] This low Hill slope is also not factored into the standard inhibition models described (eqs 3–5). New models with additional parameters to account for the partial inhibition and low methionine Hill slope were therefore required (eqs 6 and 7). Using these modified equations, the mode of inhibition of compound 27 was carried out by testing LdMetRS enzyme activity under varying substrate concentrations at various inhibitor concentrations (Figure 5). The cooperative, noncompetitive, partial inhibition model (eq 7) was confirmed as the best fit (using F-test analyses), with a noncompetitive mode of inhibition consistent with binding in an allosteric binding pocket. The returned fit parameters are shown in Table 4 and are presented with the standard error (SE) of the fit to eq 7.
(§4) Using GraFit v6.0 (Erithacus Software), each data set was globally fitted to standard competitive, uncompetitive, and noncompetitive inhibition models (eqs 3–5).
(§5) Equation 5 (noncompetitive inhibition model): [drawing 5] 5 On the basis of poor data fits to the above models, partial inhibition and cooperativity parameters were introduced into the uncompetitive and noncompetitive models as previously described by Skovpen et al.[30],[31] Mode of inhibition data were globally fitted to these modified equations (eqs 6 and 7).
(§6) Equation 7 (cooperative, noncompetitive, partial inhibition model): [drawing 7] 7 v is the velocity, Vmax is the maximum velocity, [S] is the substrate concentration, [I] is the inhibitor concentration, Ki is the inhibitor constant, Ks is the substrate dissociation constant, n is the substrate Hill slope, h is the inhibitor Hill slope, and β is the proportionality constant (fraction of activity remaining when the enzyme is fully saturated with inhibitor).
(§7) If more than one model appeared possible, then data were fitted to both and examined for significance using the F-test function in GraFit.

[10] = biological target: T2, TcMetRS; test: TcMetRS mode of inhibition studies; format: biochemical; settings: for Ki / h (inhibitor Hill slope) / β (fraction of activity remaining) / Vmax / n (substrate Hill slope) / Ks: TcMetRS; for Ki: fit to eq 7, ± SE of fit; for Vmax: global fit parameter; for n (substrate Hill slope) / Ks: global fit; for Ks: substrate dissociation constant
Excerpt: It was therefore feasible to perform TcMetRS mode inhibition studies with this compound. These studies, carried out as previously described for LdMetRS, confirm a best fit to the same partial, cooperative, noncompetitive inhibition model (eq 7; Supporting Information Figure 6 and Table 4).
as §4, §5, §6, §7

[11] = substrate: CSCC[C@H](N)C(=O)O; test: TcMetRS kinetic parameter determinations (Km app); format: biochemical, Trypanosoma cruzi; settings: other: saturating 350 μM ATP; N = 3; pH 8.0; 23.0 °C
Protocol: as §1, §2, §3

T1 sequence (A0A3Q8IBX2 entry or part of it): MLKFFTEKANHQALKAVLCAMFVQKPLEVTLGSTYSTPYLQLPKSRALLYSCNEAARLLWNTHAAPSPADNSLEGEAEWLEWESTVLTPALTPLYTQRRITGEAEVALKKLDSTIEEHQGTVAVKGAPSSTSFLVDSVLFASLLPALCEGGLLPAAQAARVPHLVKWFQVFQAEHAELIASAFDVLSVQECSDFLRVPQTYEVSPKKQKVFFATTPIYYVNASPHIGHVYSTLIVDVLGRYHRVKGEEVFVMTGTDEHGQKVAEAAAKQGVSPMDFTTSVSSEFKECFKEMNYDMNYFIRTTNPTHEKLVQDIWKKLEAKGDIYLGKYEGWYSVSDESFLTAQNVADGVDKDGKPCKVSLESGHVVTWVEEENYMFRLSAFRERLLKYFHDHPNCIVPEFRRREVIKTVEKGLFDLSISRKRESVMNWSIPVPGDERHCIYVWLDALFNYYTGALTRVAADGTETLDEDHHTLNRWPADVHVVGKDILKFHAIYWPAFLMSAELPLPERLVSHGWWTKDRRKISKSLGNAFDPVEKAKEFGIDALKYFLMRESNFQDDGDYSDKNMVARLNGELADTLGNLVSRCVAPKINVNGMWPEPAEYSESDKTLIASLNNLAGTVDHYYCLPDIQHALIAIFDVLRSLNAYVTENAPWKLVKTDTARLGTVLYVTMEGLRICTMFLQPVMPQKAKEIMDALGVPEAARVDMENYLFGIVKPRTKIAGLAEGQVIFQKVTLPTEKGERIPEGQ

Question: Which Km [1] does the source give for `CSCC[C@H](N)C(=O)O` [methionine] here?
Answer: 173 µM

Question: With `O=c1nc(NCCCNCc2cc3c(Cl)cc(Cl)cc3[nH]2)[nH]c2ccccc12` [DDD806905, reference compound] as the molecule, how does the IC50 ([2]; 50 μM methionine, 100 μM ATP, 80 nM TcMetRS, read-out: TcMetRS pIC50 (converted)) read?
Answer: 39.8 nM

Question: And the IC50 ([2]; 50 μM methionine, 100 μM ATP, 80 nM TcMetRS, tight binding limit likely reached, read-out: TcMetRS IC50)?
Answer: 38 nM

Question: And the “LdMetRS pIC50” value [3]?
Answer: 7.0

Question: And the in vivo efficacy [4]?
Answer: failed to show in vivo efficacy

Question: What does the source list for `Nc1ncnc2c1ncn2[C@@H]1O[C@H](COP(=O)(O)OP(=O)(O)OP(=O)(O)O)[C@@H](O)[C@H]1O` [ATP]?
Answer: substrate inhibition constant ([5]; ATP, 3 mM methionine): 2080 µM; Km ([5]; saturating 3 mM methionine, N = 3, read-out: TcMetRS apparent Michaelis constant (Km app) for ATP): 63 µM; Km [1]: 37 µM

Question: For `COC(=O)CNc1nc(Nc2ccc(F)c(F)c2)nc2c1cnn2C` [Compound 27], which IC50 ([6]; LdMetRS pIC50, 50 µM ATP and 50 µM methionine) is on record?
Answer: 1.41e-06 M

Question: And the IC50 ([6]; LdMetRS pIC50, 50 μM methionine, 100 μM ATP, 50 nM LdMetRS, pIC50 = −log IC50 (M))?
Answer: 1.26e-06 M

Question: And the IC50 ([6]; LdMetRS pIC50, both substrate concentrations increased to 500 µM)?
Answer: 1.41e-06 M

Question: What about the “IC50 shift on increasing substrate concentrations” value ([6]; methionine and ATP increased from 50 μM each to 500 μM, preliminary data) of the same molecule?
Answer: no IC50 shifts

Question: And the Emax ([6]; read-out: LdMetRS Maximum % Inhibition Plateau)?
Answer: 92.9%

Question: And the IC50 [2]?
Answer: > 100000 nM

Question: And the Emax ([2]; read-out: TcMetRS Maximum % Inhibition)?
Answer: 44.2 ± 6.5%

Question: What about the chromatographic logD [7] of the same molecule?
Answer: 2.17

Question: What about the solubility at 24 h [8] of the same molecule?
Answer: 5.5 µM (≈ 1.92 µg/mL)

Question: What about the Ki ([9]; varied substrate ATP) of the same molecule?
Answer: 1580 ± 40 nM

Question: What about the Ki ([9]; varied substrate methionine) of the same molecule?
Answer: 2060 ± 40 nM

Question: And the “h (inhibitor Hill slope)” value ([9]; substrate ATP, eq 7)?
Answer: 1.10 ± 0.02

Question: What about the “β (fraction of activity remaining)” value ([9]; substrate ATP, eq 7) of the same molecule?
Answer: 0.027 ± 0.005

Question: And the Vmax ([9]; substrate ATP, eq 7)?
Answer: 0.324 ± 0.004 μM Piformed/min

Question: And the “n (substrate Hill slope)” value ([9]; substrate ATP, eq 7)?
Answer: 1.07 ± 0.02 ^b

Question: What about the Ks ([9]; substrate ATP, eq 7) of the same molecule?
Answer: 21.1 ± 0.6 µM

Question: What about the “h (inhibitor Hill slope)” value ([9]; substrate methionine, eq 7) of the same molecule?
Answer: 1.05 ± 0.02

Question: What about the “β (fraction of activity remaining)” value ([9]; substrate methionine, eq 7) of the same molecule?
Answer: 0.060 ± 0.005

Question: What about the Vmax ([9]; substrate methionine, eq 7) of the same molecule?
Answer: 0.388 ± 0.009 μM Piformed/min

Question: What about the “n (substrate Hill slope)” value ([9]; substrate methionine, eq 7) of the same molecule?
Answer: 0.50 ± 0.01

Question: And the Ks ([9]; substrate methionine, eq 7)?
Answer: 327 ± 35 µM

Question: And the “mode of inhibition, LdMetRS” value ([9]; best fit by F-test, eq 7)?
Answer: noncompetitive

Question: What about the “fold difference in Ki, TcMetRS versus LdMetRS” value ([10]; Ki from mode of inhibition studies, Table 4) of the same molecule?
Answer: 5–7 fold

Question: What about the Ki ([10]; varied substrate ATP) of the same molecule?
Answer: 11300 ± 1200 nM

Question: What about the Ki ([10]; varied substrate methionine) of the same molecule?
Answer: 10800 ± 700 nM

Question: And the “h (inhibitor Hill slope)” value ([10]; substrate ATP, eq 7)?
Answer: 1.27 ± 0.14

Question: And the “β (fraction of activity remaining)” value ([10]; substrate ATP, eq 7)?
Answer: 0.48 ± 0.02

Question: What about the Vmax ([10]; substrate ATP, eq 7) of the same molecule?
Answer: 0.287 ± 0.006 μM Piformed/min

Question: And the “n (substrate Hill slope)” value ([10]; substrate ATP, eq 7)?
Answer: 1.07 ± 0.03 ^b

Question: And the Ks ([10]; substrate ATP, eq 7)?
Answer: 40.5 ± 2.0 µM

Question: And the “h (inhibitor Hill slope)” value ([10]; substrate methionine, eq 7)?
Answer: 1.48 ± 0.11

Question: What about the “β (fraction of activity remaining)” value ([10]; substrate methionine, eq 7) of the same molecule?
Answer: 0.65 ± 0.01

Question: And the Vmax ([10]; substrate methionine, eq 7)?
Answer: 0.429 ± 0.016 μM Piformed/min

Question: And the “n (substrate Hill slope)” value ([10]; substrate methionine, eq 7)?
Answer: 0.42 ± 0.01

Question: And the Ks ([10]; substrate methionine, eq 7)?
Answer: 1340 ± 237 µM

Question: And the “mode of inhibition, TcMetRS” value ([10]; best fit, eq 7)?
Answer: noncompetitive

B1: TcMetRS (Trypanosoma cruzi strain CL Brener) (protein)
chain: MSLKLFSEKANTQALKALLCCHHVKRPVELTLSGAYTSPVLHHPALKQPIFSANEMVRLILHDKWRDDSAGGSGGKKTGCYDGHWASVSLEEEAWLEWEATTFTCAVHPLYTQRRVTPEAAGAFEYLDNKIHENDCRGPCLAPVGEKGTSTKSPSFLVDCIIWCAVLPALCEGGLLGEKEREKLPHLLKWFESFQSAREAHIAGAVESLAVQEFADFLRAPRVYKLSPKISKVFFITTPIYYVNAAPHIGHVYSTLIVDVIGRYHTMKGERVFAMSGTDEHGQKVAEAARQKGMNPYDFTCQVSREFIDCFEQMGYHMDYFIRTTNESHKKVVHELWSKLEAKGDIYLGRYEGWYSVSDESFLTAQNVTDGVDKDGKPCKVSLESGHVVTWLAEDNYMFRLSAFRERLLEWYNNNPGCIVPEFRRREVIRTVEKGLNDLSVSRTREAVQDWAIPVPGNPNHCIYVWLDALSNYYTASRLRLGKSGEELELVEDHRVLERFPADIHVIGKDILKFHAIYWPAFLISAGLPLPKTIVAHGWWTKDRKKISKSLGNVFDPVEKAREFGFDALKYFLLRETGFSDDGDYSDRNMISRLNGELADTLGNLVMRCTSAKINVHRVWPTPDAYNAKDEALIQLIKDLPGVVDHFFLIPDVQKALAAVFDLLRAINSYVTENAPWRLVKTDPDRLRTVLYITMEGTRLATLMLSPVLSQKAPVIFDMLGVPEANRVGVENFGFGVVPSGTSIGDAVEGKVLFPKISLDKAQSA
Question: For B1, which Km [11] is on record?
Answer: 212 µM
